The values that follow come from patent US20100129478A1, “Plant Extracts and Methods and Uses Therefore” (priority 2005, published 2010).

The assay has as its system human hepatic cell line HepG2. The assay is described as follows: Anti-cancer assay: cytotoxicity on HepG2 cells, trypan blue counting. Type of assay: cell-based.

Protocol: The cells were seeded at a density of 2.5×10^5 cell per ml in a 24 well plate. The cells were allowed to attach for 2 hour before adding the extracts at a concentration of 10 μg/ml. […] The cell viability was determined after 24 hours.
Seed HepG2 at a cell density of 2.5×10^5 cells per ml. […] Incubate in 5% CO2 incubator at 37° C. for 48 hour. Trypsinize cell. Mix with 1 part trypan blue and 4 parts PBS and count the viable cells and the non-viable cells by counting the cells that has taken typan blue (non-viable cells) and the ones that has excluded it (viable cells).

Consider `O=C1O[C@H]([C@@H](O)CO)C(O)=C1O` [ascorbic acid], for which the “No. of live cells” value was determined as 66.5.
